From patent US20110288154A1, “RNA Interference Mediated Inhibition of Epithelial Sodium Channel (ENaC) Gene Expression Using Short Interfering Nucleic Acid (siNA)” (MERCK & CO., INC., priority 2008, published 2011)
[invAb] = inverted abasic unit; m = 2'-O-methyl; r = 2'-OH (RNA); f = 2'-fluoro

System: ENaCα mRNA
Test: Screening of ENaCα siNAs in human A549 cells (quantitative RT-PCR)
Type: cell-based
Set-up: Percent Reduction of the ENaCα mRNA relative to a non-targeting control siNA (NTC): concentration or dose not given beside the values
Settings: human A549 cells, n = 3; for Avg ENaCα Expression: 25 nM siNA with Lipofectamine 2000, harvested 24 hours post-transfection; for Mean (level of ENaCα expression normalized to the level of GAPDH) / Percent Reduction of the ENaCα mRNA relative to a non-targeting control siNA (NTC) / Avg GAPDH Expression: 24 hours post-transfection; for Avg GAPDH Expression: housekeeping gene used for normalisation
Procedure: siNA constructs (Table 1b) may be tested for efficacy in reducing ENaC RNA expression in, for example, A549 human lung carcinoma cells. A549 (human; ATCC cat# CCL-185) cells were cultured at 37° C. in the presence of 5% CO2 and grown in Ham's F12K medium with 2 mM L-glutamine adjusted to contain 1.5 g/L sodium bicarbonate and supplemented with fetal bovine serum at a final concentration of 10% and 100 U/mL penicillin. The A549 cells were plated approximately 24 hours before transfection in 96-well plates at 7,500 cells/well, 100 μl/well. After 24 hours complexes containing siNA and Lipofectamine 2000 (Invitrogen) were created as follows: a solution of Lipofectamine 2000 in OPTI-MEM was prepared containing Lipofectamine 2000 at a final concentration of 14 μg/ml. In parallel, solutions of the siNAs were prepared in OPTI-MEM at a final concentration of 150 nM. After both solutions were incubated at 20° C. for 20 minutes an equal volume of the siNA solutions and the Lipofectamine 2000 solution were added together for each of the siNAs. The resultant solution has the siNAs at a final concentration of 75 nM and Lipofectamine 2000 at a final concentration of 7 μg/ml. This solution was incubated at 20° C. for 20 minutes. After incubation 50 μl of the solution were added to each of the wells (in triplicate). The final concentration of siNA in each well was 25 nM and the final concentration of Lipofectamine 2000 in each well was 2.33 μg/ml. […] Dose response curves were determined in a similar manner with each concentration being done in triplicate and maintaining a constant amount of Lipofectamine 2000 in each transfection.
RNA was extracted from 96-well plates using the Invitek Invisorb RNA Cell HTS 96 Kit/C (Cat# 70619000) with a slightly modified protocol. The details of the protocol for isolating RNA from each plate are described as follows:
1) Aspirate media with rake 2) Add 150 ul/well Lysis buffer 3) Place on plate shaker for 1 minute 4) Place DNA binding plate on top of 0.5 ml collection plate 5) Pipette 190 ul up and down twice and add to DNA binding plate 6) Cover plate 7) Centrifuge plates 4 minutes at 4000 RPM 8) Discard DNA binding plate 9) Place the RNA binding plate on top of 2 ml collection plate 10) Add 150 ul/well of Binding Buffer R to 0.5 ml collection plate 11) Move contents of 0.5 ml collection plate to RNA binding plate 12) Let incubate for 1 minute 13) Centrifuge plates 4 minutes at 4000 RPM 14) Add 600 ul/well of Wash Buffer R1 to RNA binding plate 15) Centrifuge plates 4 minutes at 4000 RPM 16) Dump wash buffer from 2 ml collection plate 17) Add 400 ul/well of Wash Buffer R2 to RNA binding plate 18) Centrifuge plates 4 minutes at 4000 RPM 19) Add 400 ul/well of Wash Buffer R2 to RNA binding plate 20) Centrifuge plates 10 minutes at 4000 RPM 21) Dump wash buffer from 2 ml collection plate 22) Centrifuge plates 3 minutes at 4000 RPM 23) Discard 2 ml collection plate and place RNA binding plate on to microtiter plate 24) Add 100 ul/well of elution buffer to RNA binding plate 25) Incubate for 2 minutes 26) Seal plate 27) Centrifuge plates 3 minutes at 4000 RPM 28) Discard RNA binding plate 29) Cover microtiter plate for storage in −80 freezer
A series of probes and primers were used to detect the various mRNA transcripts of the genes of ENaCa and GAPDH in mouse, rat, and human cell lines. The assays were performed on an ABI 7500 instrument, according to the manufacturer's instructions. Within each experiment, the baseline was set in the exponential phase of the amplification curve, and based on the intersection point of the baselines with the amplification curve, a Ct value was assigned by the instrument. This Ct value was then assigned a QTY value based on the Standard Curve. The standard curve in the various experiments herein used 1 ng to 300 ng of RNA extracted from the same cell line used for the experimental transfections. […]

| Substance | Avg ENaCα Expression | Mean (level of ENaCα expression normalized to the level of GAPDH) | Percent Reduction of the ENaCα mRNA relative to a non-targeting control siNA (NTC) [%] | Avg GAPDH Expression |
| --- | --- | --- | --- | --- |
| B ccAuccGccuGGuGuGcuc TTB / GAGcAcAccAGGcGGAuGGUU (chain 1 CCAUCCGCCUGGUGUGCUCTT; chain 2 GAGCACACCAGGCGGAUGGUU; siRNA; chain 1: DNA at AGT, 2'-fluoro at CU, [invAb] at 5' end, 3' end, backbone not given here; chain 2: sugars from the 5' end rrrfmfmffmmmfmmmfmmmm, backbone not given here) [Site 311] | 65.43 | 1.29 | 17.0 | 53.29 |
| B ccGcAuGAAGAcGGccuuc TTB / GAAGGccGucuucAuGcGGUU (chain 1 CCGCAUGAAGACGGCCUUCTT; chain 2 GAAGGCCGUCUUCAUGCGGUU; siRNA; chain 1: DNA at AGT, 2'-fluoro at CU, [invAb] at 5' end, 3' end, backbone not given here; chain 2: sugars from the 5' end rrrmmffmfffffmfmfmmmm, backbone not given here) [Site 339] | 69.05 | 1.13 | 27.1 | 62.02 |
| B cccuGcuGuccAcAGuGAc TTB / GUCAcuGuGGAcAGcAGGGUU (sense CCCUGCUGUCCACAGUGACTT; antisense GUCACUGUGGACAGCAGGGUU; siRNA; sense: DNA at AGT, 2'-fluoro at CU, [invAb] at 5' end, 3' end, backbone not given here; antisense: sugars from the 5' end rrrmffmfmmmfmmfmmmmmm, backbone not given here) [Site 1121] | 72.95 | 1.65 | −6.0 | 46.89 |
| B cuGuGcAAccAGAAcAAAu TTB / AUUuGuucuGGuuGcAcAGUU (chain 1 CUGUGCAACCAGAACAAAUTT; chain 2 AUUUGUUCUGGUUGCACAGUU; siRNA; chain 1: DNA at AGT, 2'-fluoro at CU, [invAb] at 5' end, 3' end, backbone not given here; chain 2: sugars from the 5' end rrrfmffffmmffmfmfmmmm, backbone not given here) [Site 781] | 61.44 | 0.97 | 37.7 | 66.47 |
| B cuccuGuccAAccuGGGcA TTB / UGCccAGGuuGGAcAGGAGUU (sense CUCCUGUCCAACCUGGGCATT; antisense UGCCCAGGUUGGACAGGAGUU; siRNA; sense: DNA at AGT, 2'-fluoro at CU, [invAb] at 5' end, 3' end, backbone not given here; antisense: sugars from the 5' end rrrffmmmffmmmfmmmmmmm, backbone not given here) [Site 1738] | 77.23 | 0.71 | −7.4 | 108.96 |
